Reference: patent publication US7041275B2, “Irrigating fluid” (priority 2001, dated 2006)

How the values were obtained:
[1] = Nitrous oxide concentration in exhaled air of pigs after injection of irrigating fluid containing nitrous oxide; assay type: in vivo, pig
Excerpt: A Telair N2O monitor type 2001 L was used to measure the nitrous oxide concentration. The measuring range of the instrument was 0–1000 ppm.
As the analyser was sensitive also to carbon dioxide an absorber containing soda lime to remove the carbon dioxide was arranged before the analyser. During the absorption process water is formed which together with the moisture in the exhaled air can disturb the measurements. A layer of silica gel after the soda lime absorber was used to eliminate this problem.
The sample gas pump gave a sample flow of 300 mL/min.
The pump was continuously pumping gas. The measured concentration was a time weighted average for the exhaled and inhaled gas.
The weight of the pig was 19 kg.
The weight of the pig was 21 kg. Ventilation as for pig. 1. First 300 mL of irrigating fluid were injected intraperitonally during 20 minutes. The initial decrease in nitrous oxide concentration was caused by placing the needle in the wrong place. Some mL were injected before the injection was stopped and the test restarted. The decrease is the decay phase from the first injection.
In test two 600 mL were administered intravenously during 20 minutes.
Weight 23 kg. Ventilation […], the rest as for pig 1. First a number of tests with intravenous injection of pulses of fluid were performed. The volumes added were 2, 10 and 20 mL. Approximately 1 mL/s was added.
Then 150 mL of fluid were administered intravenously during 20 minutes. The discontinuity in the diagram was caused by testing another ventilator setting which affected the reading so much that the data point was not used. After 40 minutes 600 mL of irrigating fluid were added intravenously during 20 minutes.
The nitrous oxde concentration values are measured concentrations minus the starting point value. In some cases a test was started while the nitrous oxide concentration from the previous test was still decreasing. As the base line was not stable, the values at the end of the decay phase are uncertain. This can be seen in FIG. 4, where it looks like the 150 mL concentration values are stabilizing at a higher level than the 600 mL values.

[2] = pig, in vivo
Experimental: To a bag with 3 L fluid 300 mL of nitrous oxide (=0,18 mg nitrous oxide/mL irrigagting fluid) were added. The nitrous oxide was measured with a 300 mL glass syringe and injected into the bag using the syringe connection. The temperature was abut 22° C. and the air pressure about 1015 mbar (not measured but estimated via meteorological service). Before the addition of nitrous oxide the gas in the bag was removed, about 1 mL remained. After the addition of nitrous oxide the bag was shaken until the nitrous oxide was dissolved. A gas bubble with a volume of abut 15 mL remained.
The weight of the pig was 19 kg. Ventilation 3L/min with 20 breaths per minute, 25% inhalation followed by 10% pause. At the first test 300 mL of irrigating fluid were injected intravenously during 20 min using a dosing pump.

[3] = intraperitoneal injection of irrigating fluid, exhaled air
[4] = intravenous injection of irrigating fluid, exhaled air

decrease of concentration in exhaled air compared with ethanol ([1]; data normalised to similar peak heights, pig 1, intravenous)	time before the nitrous oxide concentration started to increase [1, 3]	time to 50% of the final concentration after the start of the increase [1, 3]	time after start of injection until nitrous oxide concentration started to increase [1, 4]	time to 50% of the final concentration after the concentration started to increase [1, 4]	measured nitrous oxide concentration used in mass balance ([1]; pig 3, 30 mL/min irrigating fluid intravenously, time weighted average of exhaled and inhaled gas)	exhaled nitrous oxide (mass balance) ([1]; pig 3, added amount of nitrous oxide 3,0 mL/min)	increase of nitrous oxide concentration per mL of irrigating fluid ([1]; pulses of fluid added intravenously (2, 10, 20 mL), exhaled air, pig 3)	time of peak reading after start of injection ([1]; pulses of fluid added intravenously, exhaled air)	highest measured ethanol concentration [2]	SMILES
decreased much faster than the ethanol	2.5 min	about 5 minutes	about 15 seconds	about one	520 ppm	3,0 mL/min	10–15 ppm per mL	about 30 seconds		[N-]=[N+]=O [nitrous oxide]
									0.20%	CCO [ethanol]
